{"source": "patent US20200353057A1", "about": "“REDUCING IMMUNOGENICITY TO PEGLOTICASE” (Horizon Pharma Rheumatology LLC, priority 2019, published 2020)", "origin": "cited, not measured here", "key": {"[1]": {"system": "patients with lupus nephritis", "conditions": "in vivo"}, "[2]": {"conditions": "for Detectable in urine: after 8 hours; for Bound to serum proteins: in vivo"}, "[3]": {"system": "patients treated with allopurinol", "conditions": "human, in vivo"}, "[4]": {"system": "patients with refractory chronic gout", "conditions": "Phase 2 program"}, "[5]": {"system": "subjects with refractory gout", "conditions": "doses of 4 to 12 mg, within 24 to 72 hours, from 11.1±0.6 mg/dL"}, "[6]": {"system": "organ transplant recipients", "conditions": "in vivo"}, "[7]": {"system": "patients with refractory chronic gout"}, "[8]": {"conditions": "diluted in infusion bags"}, "[9]": {"system": "renal transplant and RA patients"}, "[10]": {"system": "rabbits"}, "[11]": {"system": "rats"}}, "note": "Where two headings read alike, the source gives them in different places."}
{"compound": "rituximab: biologic arm of a lupus nephritis RCT on top of MMF and glucocorticoids", "values": [{"measurement": "Rate of serious infections", "setting": "[1]", "result": "16.6 /100 patient-years"}]}
{"compound": "Sc1ncnc2nc[nH]c12", "note": "[mercaptopurine, 6-mercaptopurine]", "values": [{"measurement": "Detectable in urine", "setting": "[2]", "result": "no mycophenolate mofetil or mercaptopurine is detectable in urine"}, {"measurement": "Bound to serum proteins", "setting": "[2]", "result": 30, "unit": "%"}]}
{"compound": "Oc1ncnc2[nH]ncc12", "note": "[allopurinol]", "values": [{"measurement": "Patients who develop allergic reactions", "setting": "[3]", "result": "Approximately 2%"}, {"measurement": "Patients with severe hypersensitivity syndrome", "setting": "[3]", "result": "about 0.4%"}]}
{"compound": "pegloticase", "values": [{"measurement": "Dose-response plateau dose", "setting": "[4]", "result": 12, "unit": "mg"}, {"measurement": "Minimally effective dose", "setting": "[4]", "result": 4, "unit": "mg"}, {"measurement": "Safe and optimally effective dose", "setting": "[4]", "result": 8, "unit": "mg"}, {"measurement": "pUAc (plasma urate concentration) after dosing, mean±SD", "setting": "[5]", "result": "1.0±0.5", "unit": "mg/dL"}, {"measurement": "Organ transplant recipients with a sustained high titer Ab response to pegloticase", "setting": "[6]", "result": "one out of seven"}, {"measurement": "Patients maintaining a response, antibody titer exceeding 1:2430 at any time", "setting": "[7]; 7 of 65 patients, another study", "result": 10.8, "unit": "%"}, {"measurement": "Patients with IRs in whom loss of response (return to SUA ≥6 mg/dL) preceded the first IR", "setting": "[7]; 20/21", "result": 95, "unit": "%"}, {"measurement": "Patients with titers exceeding 1:2430 who developed IRs", "setting": "[7]; 31 of 52", "result": 60, "unit": "%"}, {"measurement": "Patients maintaining a response, never had an antibody titer above 1:2430", "setting": "[7]; 58/65, another study", "result": 89.2, "unit": "%"}, {"measurement": "Patients who developed high titer anti-pegloticase antibodies and subsequently lost response", "setting": "[7]; 69 of 169 patients, one study", "result": 41, "unit": "%"}, {"measurement": "Occurrence of most common adverse reactions (gout flares, infusion reactions, nausea, contusion or ecchymosis, nasopharyngitis, constipation, chest pain, anaphylaxis, vomiting)", "setting": "[7]; KXX-treated patients", "result": "≥ 5", "unit": "%"}, {"measurement": "Occurrence of ecchymoses, sore throat, constipation, chest pain, and vomiting", "setting": "[7]; patients treated with pegloticase", "result": "at least 5%"}, {"measurement": "Incidence of infusion-related reactions", "setting": "[7]; pooled Phase 3, 8 mg biweekly dosing", "result": 26, "unit": "%"}, {"measurement": "Incidence of infusion-related reactions", "setting": "[7]; pooled Phase 3, 8 mg every-4-week dosing regimen", "result": 40, "unit": "%"}, {"measurement": "Anaphylaxis frequency", "setting": "[7]; pre-marketing controlled clinical trials", "result": 6.5, "unit": "%"}, {"measurement": "Infusion reactions reported", "setting": "[7]; pre-marketing controlled clinical trials, 8 mg every 2 weeks", "result": 26, "unit": "%"}, {"measurement": "Participants with high antibody titers who maintained a response (serum urate <6 mg/dL)", "setting": "[7]; second study", "result": "1 of 52"}, {"measurement": "Participants with high titers who developed IR", "setting": "[7]; second study", "result": 60, "unit": "%"}, {"measurement": "Stability of diluted solution", "setting": "[8]; 2° C. to 8° C.", "result": 4, "unit": "h"}, {"measurement": "Stability of diluted solution", "setting": "[8]; room temperature (20° C. to 25° C.)", "result": 4, "unit": "h"}]}
{"compound": "COc1c(C)c2c(c(O)c1C/C=C(\\C)CCC(=O)OCCN1CCOCC1)C(=O)OC2", "note": "[Mycophenolate mofetil, 2-morpholinoethyl (E)-6-(1,3-dihydro4-hydroxy-6-methoxy-7-methyl-3-oxo-5-isobenzofuranyl)-4-methyl-4-hexenoate]", "values": [{"measurement": "Increased susceptibility to infection", "setting": "[9]; RA", "result": "< 1", "unit": "%"}, {"measurement": "Leukopenia", "setting": "[9]; RA", "result": 28, "unit": "%"}, {"measurement": "Nausea and vomiting", "setting": "[9]; RA", "result": 12, "unit": "%"}, {"measurement": "Increased susceptibility to infection", "setting": "[9]; renal transplant", "result": 20, "unit": "%"}, {"measurement": "Leukopenia", "setting": "[9]; renal transplant", "result": "> 50", "unit": "%"}, {"measurement": "Neoplasia (lymphoma)", "setting": "[9]; renal transplant", "result": 0.5, "unit": "%"}, {"measurement": "Neoplasia (other than lymphoma)", "setting": "[9]; renal transplant", "result": 3, "unit": "%"}, {"measurement": "Teratogenic effects", "setting": "[10]", "result": "teratogenic effects"}, {"measurement": "Detectable in urine", "setting": "[2]", "result": "no mycophenolate mofetil or mercaptopurine is detectable in urine"}, {"measurement": "Bound to serum proteins", "setting": "[2]", "result": 30, "unit": "%"}, {"measurement": "Absorption following oral administration", "setting": "[2]; oral", "result": "well absorbed"}, {"measurement": "Teratogenic effects", "setting": "[11]", "result": "teratogenic effects"}]}
